Legend:
[1] = tested on: GPVI platelet aggregation; assay: GPVI platelet aggregation studies; type: cell-based; details: FIG. 122
[2] = tested on: expression of activation markers CD69 and CD86; assay: in vivo potency: mice gavaged, BCR stimulated with IgM, CD69 and CD86 monitored by flow cytometry; details: gavage, 3 h post-dose, versus ibrutinib, FIG. 124
Procedure: Mice were gavaged at increasing drug concentration and sacrificed at one time point (3 h post-dose). BCR is stimulated with IgM and the expression of activation markers CD69 and CD86 are monitored by flow cytometry to determine EC50's.

CLL [3] = assay: clinical study in CLL (ALC and SPD); type: in vivo, human; details: CLL patients, FIG. 125
Source text: J. Med. 2013, 369, 32-42.

CLL [4] = assay: apoptosis in treated CLL patients; type: in vivo, human; details: FIG. 144
CXCL12 [5] = assay: CXCL12 levels in treated patients; type: in vivo, human; details: FIG. 145
CCL2 [6] = assay: CCL2 levels in treated patients; type: in vivo, human; details: FIG. 146
[7] = tested on: human platelet-mediated thrombosis; assay: in vivo human thrombus formation in the VWF HA1 mice model; details: human platelets preincubated with BTK inhibitor, laser-induced injury
human platelets = assay: GPVI (convulxin-induced) platelet aggregation; type: cell-based; details: CVX-induced
Procedure: GPVI platelet aggregation was measured for Formula (XVIII) and Formula (XX-A) (ibrutinib). Blood was obtained from untreated humans, and platelets were purified from […] by centrifugation. Cells were resuspended to a final concentration of 350,000/μL in buffer containing 145 mmol/L NaCl, 10 mmol/L HEPES, 0.5 mmol/L Na2HPO4, 5 mmol/L KCl, 2 mmol/L MgCl2, 1 mmol/L CaCl2), and 0.1% glucose, at pH 7.4. Stock solutions of […] were prepared on the day of experimentation and added to platelet suspensions 5 minutes (37° C., 1200 rpm) before the induction of aggregation. Aggregation was assessed with a Chronolog Lumi-Aggregometer (model 540 VS; Chronolog, Havertown, Pa.) and permitted to proceed for 6 minutes after the addition of agonist. The results are reported as maximum percent change in light transmittance from baseline with platelet buffer used as a reference.
In FIG. 123, the results of CVX-induced (250 ng/mL) human platelet aggregation results before and 15 minutes after administration of the BTK inhibitors to 6 healthy individuals are shown.

canine B cell lymphoma = assay: veterinary clinical trial in companion dogs with B cell lymphoma; type: in vivo
Procedure: Enrollment has completed for both arms.
Intra-subject dose escalation was allowed. Six of the 11 dogs that initiated at 2.5 or 5 mg/kg once daily were escalated and completed the study with dosages of 10 mg/kg twice daily. Among all the dose cohorts, 8 dogs had shrinkage of target lesions >20%; the best tumor responses were between 45-49% reduction in the sum of target lesions in two dogs. […] CR were defined as disappearance of all evidence of disease per evaluator judgment, and absence of new lesions. Vali, et al., Vet. Comp. Oncol. 2010, 8, 28-37.
Of these, 7 dogs had shrinkage of target lesions >20%, providing evidence of biological activity for the combination; four of these dogs achieved a PR. […] The initial reductions in the sum of target lesions continued to deepen during the course of therapy in 7 of the 10 dogs.

CYP3A4 = CYP3A4 (Homo sapiens, UniProt P08684); assay: loss of parent drug as catalyzed by CYPs; type: in vitro ADME; details: in vitro loss of parent drug
CYP3A4, sequence (P08684 whole entry): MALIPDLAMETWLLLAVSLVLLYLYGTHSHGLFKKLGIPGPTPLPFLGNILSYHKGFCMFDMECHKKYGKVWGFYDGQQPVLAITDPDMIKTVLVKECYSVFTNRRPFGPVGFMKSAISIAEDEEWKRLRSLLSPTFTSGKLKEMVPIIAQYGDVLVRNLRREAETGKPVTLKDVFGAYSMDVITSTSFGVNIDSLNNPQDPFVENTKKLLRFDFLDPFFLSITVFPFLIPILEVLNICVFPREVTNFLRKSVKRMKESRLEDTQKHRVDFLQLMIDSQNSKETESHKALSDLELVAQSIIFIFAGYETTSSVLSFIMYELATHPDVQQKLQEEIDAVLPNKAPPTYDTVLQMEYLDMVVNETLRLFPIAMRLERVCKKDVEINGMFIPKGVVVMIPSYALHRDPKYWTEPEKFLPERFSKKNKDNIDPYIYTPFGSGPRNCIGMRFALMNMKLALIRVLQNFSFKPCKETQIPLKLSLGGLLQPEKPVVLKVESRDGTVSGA

hepatocytes = assay: in vitro metabolism in hepatocytes with 14C-labeled drug; type: in vitro ADME, mouse, rat, dog, rabbit, monkey, and human
[8] = glutathione binding and depletion in vitro; type: in vitro ADME
CYP enzymes = assay: nonclinical CYP interaction studies; type: in vitro ADME
CXCL12 [9] = assay: plasma chemokines in treated CLL patients; type: in vivo, human
CCL2 [10] = assay: plasma chemokines in treated CLL patients; type: in vivo, human
BTK [11] = biological target: T1, BTK (Mus musculus, UniProt P35991); assay: molecular probe assay, BTK occupancy in MDSCs from tumor bearing PDA mice; type: in vivo; details: 15 mg/kg BID, Day 8, 4 hours post dose, granulocytic and monocytic MDSC (N=5)
T1 construct: MDSCs were purified from tumor bearing PDA mice; from tissue; host or cells: granulocytic and monocytic MDSCs purified from tumour-bearing PDA mice
T1 sequence (P35991 whole entry): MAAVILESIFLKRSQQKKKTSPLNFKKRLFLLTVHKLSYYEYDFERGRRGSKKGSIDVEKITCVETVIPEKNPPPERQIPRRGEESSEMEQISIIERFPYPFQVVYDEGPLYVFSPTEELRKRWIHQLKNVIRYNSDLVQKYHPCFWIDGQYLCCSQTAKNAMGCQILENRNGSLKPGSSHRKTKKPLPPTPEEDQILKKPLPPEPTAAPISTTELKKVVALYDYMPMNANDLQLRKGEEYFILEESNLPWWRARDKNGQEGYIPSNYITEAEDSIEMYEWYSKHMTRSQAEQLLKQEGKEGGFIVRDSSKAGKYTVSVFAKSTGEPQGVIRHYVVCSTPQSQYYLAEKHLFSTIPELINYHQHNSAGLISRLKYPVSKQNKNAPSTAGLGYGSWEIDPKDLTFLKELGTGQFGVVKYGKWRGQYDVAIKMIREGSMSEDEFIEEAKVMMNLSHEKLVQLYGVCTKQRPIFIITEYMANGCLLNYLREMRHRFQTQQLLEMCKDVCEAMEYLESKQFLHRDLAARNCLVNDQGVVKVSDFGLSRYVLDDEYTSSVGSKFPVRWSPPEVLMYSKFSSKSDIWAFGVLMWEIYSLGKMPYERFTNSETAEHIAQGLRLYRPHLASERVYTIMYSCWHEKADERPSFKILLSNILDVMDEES
Source text: A molecular probe assay was used to calculate the percent irreversible occupancy of total BTK.

NSCLC (KrasLA2) tumors = assay: genetic tumor model of NSCLC (KrasLA2); type: in vivo, mice; details: 15 mg/kg
Source text: The model is designed to have sporadic expression in single cells of G12D mutant Kras off its own promoter triggered by spontaneous intrachromosomal recombination. Johnson, et al. Nature 2001, 410, 1111-16. While the mutant Kras protein is expressed in a few cells in all tissues, tumor development is seen only in the lung at high penetrance.

B cell receptor = assay: whole blood anti-IgD stimulated CD69 on CD19+ B cells; type: cell-based; details: whole blood from four healthy donors, 2 hours compound, anti-human IgD 18 hours
Procedure: Blood from four healthy donors was incubated for 2 hours with the compounds shown over a concentration range, and then stimulated with anti-human IgD [10 μg/mL] for 18 hours. The mean fluorescent intensity (MFI) of CD69 (and CD86, data not shown) on gated CD19+ B cells was measured by flow cytometry.

[12] = preliminary brain PK experiments, oral gavage; type: in vivo, Sprague-Dawley rats; details: 5 or 30 mg/kg/day oral
Source text: Two vehicle treated rats were sacrificed on each sampling day for comparison.

[13] = preliminary evaluations of metabolism in plasma, bile, and urine; type: in vivo; details: rats, dogs, and monkeys
CLL [14] = details: human, in vivo
Source text: (§1) This study is a multicenter, open-label, nonrandomized, sequential group, dose escalation study. The following dose cohorts will be evaluated:
(§2) Each cohort will be enrolled sequentially with 6 subjects per cohort. If ≤1 dose-limiting toxicity (DLT) is observed in the cohort during Cycle 1, escalation to the next cohort will proceed. Subjects may be enrolled in the next cohort if 4 of the 6 subjects enrolled in the cohort completed Cycle 1 without experiencing a DLT, while the remaining 2 subjects are completing evaluation. If ≥2 DLTs are observed during Cycle 1, dosing at that dose and higher will be suspended and the MTD will be established as the previous cohort. […] Dose escalation will end when either the MTD is achieved or at 3 dose levels above full BTK occupancy, whichever occurs first. […] Should escalation to Cohort 6 be necessary, the dose will be determined based on the aggregate data from Cohorts 1 to 5, which includes safety, efficacy, and PK/PD results. The dose for Cohort 6 will not exceed 900 mg/day.
(§3) Dose-limiting toxicity is defined as any of the following events (if not related to disease progression): (1) any Grade ≥3 non-hematologic toxicity (except alopecia) persisting despite receipt of a single course of standard outpatient symptomatic therapy (e.g., Grade 3 diarrhea that responds to a single, therapeutic dose of Imodium® would not be considered a DLT); (2) grade ≥3 prolongation of the corrected QT interval (QTc), as determined by a central ECG laboratory overread; (3) grade 4 neutropenia (absolute neutrophil count [ANC]<500/μL) lasting >7 days after discontinuation of therapy without growth factors or lasting >5 days after discontinuation of therapy while on growth factors (i.e., Grade 4 neutropenia not lasting as long as specified will not be considered a DLT), (4) grade 4 thrombocytopenia (platelet count <20,000/μL) lasting >7 days after discontinuation of therapy or requiring transfusion (i.e., Grade 4 thrombocytopenia not lasting as long as specified will not be considered a DLT), and (5) dosing delay due to toxicity for >7 consecutive days.
(§4) The study scheme is a sequential cohort escalation. Each cohort consists of six subjects. The sample size of the study is 24 to 36 subjects, depending on dose escalation into subsequent cohorts. […] The dose level for Cohort 6 will be determined based on the safety and efficacy of Cohorts 1 to 5, and will not exceed 900 mg/day. Escalation will end with either the MTD cohort or three levels above full BTK occupancy, whichever is observed first. An additional arm of the study will explore 100 mg BID dosing.
(§5) The route of administration is oral (per os, or PO). The dose regimen is once daily or twice daily, as defined by the cohort, on an empty stomach (defined as no food 2 hours before and 30 minutes after dosing).

[15] = study of respiratory function; details: rats, doses through 300 mg/kg
[16] = tested on: 80 known pharmacologic targets such as G-protein-coupled receptors, nuclear receptors, proteases, and ion channels; assay: binding assays with 80 known pharmacologic targets; details: screened at 10 μM
BTK [17] = biological target: BTK (Homo sapiens, UniProt Q06187); assay: BTK target occupancy in relapsed/refractory CLL patients; details: at lower dosage versus ibrutinib, FIG. 131
BTK (Homo sapiens, UniProt Q06187), sequence (Q06187 whole entry): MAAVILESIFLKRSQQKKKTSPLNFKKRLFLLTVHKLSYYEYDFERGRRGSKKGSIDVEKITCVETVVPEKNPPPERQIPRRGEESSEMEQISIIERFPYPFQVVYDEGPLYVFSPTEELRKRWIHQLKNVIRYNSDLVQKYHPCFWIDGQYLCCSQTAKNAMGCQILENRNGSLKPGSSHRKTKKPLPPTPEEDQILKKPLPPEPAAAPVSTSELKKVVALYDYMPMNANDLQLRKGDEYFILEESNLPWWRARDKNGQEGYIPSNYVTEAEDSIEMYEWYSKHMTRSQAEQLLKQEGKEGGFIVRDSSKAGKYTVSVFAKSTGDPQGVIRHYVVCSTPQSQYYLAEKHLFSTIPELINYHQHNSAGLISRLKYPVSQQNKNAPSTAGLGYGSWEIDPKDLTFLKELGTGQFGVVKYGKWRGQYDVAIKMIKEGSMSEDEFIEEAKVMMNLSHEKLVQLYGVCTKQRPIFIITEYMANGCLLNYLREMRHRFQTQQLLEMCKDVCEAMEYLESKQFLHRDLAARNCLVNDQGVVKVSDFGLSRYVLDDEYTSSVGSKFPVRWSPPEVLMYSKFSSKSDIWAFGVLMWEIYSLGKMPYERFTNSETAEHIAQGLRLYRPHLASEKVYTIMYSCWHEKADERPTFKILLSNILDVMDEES

[18] = functional observation battery (GLP safety pharmacology); details: rats, doses through 300 mg/kg
EGFR = EGFR (Homo sapiens, UniProt P00533); assay: EGF-induced EGFR phosphorylation in A431 cells (phosphoflow); details: 10 μM, A431 human epidermoid cancer cell line
EGFR, sequence (P00533 25-1210): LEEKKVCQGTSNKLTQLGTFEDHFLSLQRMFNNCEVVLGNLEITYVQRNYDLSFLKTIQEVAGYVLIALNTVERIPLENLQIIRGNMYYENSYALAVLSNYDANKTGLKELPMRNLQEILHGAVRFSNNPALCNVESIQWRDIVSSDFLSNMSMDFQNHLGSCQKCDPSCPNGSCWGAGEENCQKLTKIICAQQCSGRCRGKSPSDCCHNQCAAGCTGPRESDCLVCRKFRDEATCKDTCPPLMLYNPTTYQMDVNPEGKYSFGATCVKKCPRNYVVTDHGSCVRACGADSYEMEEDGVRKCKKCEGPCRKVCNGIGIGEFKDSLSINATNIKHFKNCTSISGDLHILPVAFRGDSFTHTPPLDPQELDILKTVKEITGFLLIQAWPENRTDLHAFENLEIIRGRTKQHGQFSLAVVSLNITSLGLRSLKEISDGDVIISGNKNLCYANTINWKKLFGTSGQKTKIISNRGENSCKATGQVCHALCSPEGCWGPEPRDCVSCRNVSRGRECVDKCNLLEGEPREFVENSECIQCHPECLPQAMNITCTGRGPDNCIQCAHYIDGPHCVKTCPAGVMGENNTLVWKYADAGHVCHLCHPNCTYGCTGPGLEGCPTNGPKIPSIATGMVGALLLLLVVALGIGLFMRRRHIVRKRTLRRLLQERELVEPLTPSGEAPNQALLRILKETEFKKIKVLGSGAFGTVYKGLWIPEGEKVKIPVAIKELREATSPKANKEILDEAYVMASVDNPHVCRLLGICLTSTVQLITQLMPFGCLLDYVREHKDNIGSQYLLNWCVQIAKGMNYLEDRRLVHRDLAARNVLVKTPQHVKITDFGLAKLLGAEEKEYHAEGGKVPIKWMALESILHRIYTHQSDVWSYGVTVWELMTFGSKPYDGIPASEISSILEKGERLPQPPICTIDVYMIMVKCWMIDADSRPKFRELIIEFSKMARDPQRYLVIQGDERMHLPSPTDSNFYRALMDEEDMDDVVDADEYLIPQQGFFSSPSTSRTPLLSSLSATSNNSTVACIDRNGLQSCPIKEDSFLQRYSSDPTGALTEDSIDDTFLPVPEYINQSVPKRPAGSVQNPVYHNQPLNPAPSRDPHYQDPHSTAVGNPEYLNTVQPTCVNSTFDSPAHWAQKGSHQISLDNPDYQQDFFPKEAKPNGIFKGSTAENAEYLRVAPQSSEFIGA

CLL [19] = assay: clinical study of Formula (XVIII) in relapsed/refractory CLL
Source text: as §1, §2, §3, §4, §5

[20] = cardiovascular function study in awake telemeterized beagle dogs; details: male beagle dogs, single doses through 30 mg/kg
[21] = within the tested dose range; cited from earlier work

Structure (SMILES): CC#CC(=O)N1CCC[C@H]1c1nc(-c2ccc(C(=O)Nc3ccccn3)cc2)c2c(N)nccn12 [Formula XVIII]
- IC50 [1]: 1150 nM

Structure (SMILES): CC#CC(=O)N1CCC[C@H]1c1nc(-c2ccc(C(=O)Nc3ccccn3)cc2)c2c(N)nccn12 [Formula (XVIII), (S)-4-(8-amino-3-(1-(but-2-ynoyl)pyrrolidin-2-yl)imidazo[1,5-a]pyrazin-1-yl)-N-(pyridin-2-yl)benzamide]
- in vivo potency, inhibition of expression of activation markers CD69 and CD86 [2]: more potent at inhibiting expression of activation makers than ibrutinib
- absolute lymphocyte count (ALC) (CLL [3]; relative to ibrutinib (Byrd et al. 2013)): much smaller relative increase and much faster decrease
- sum of the product of greatest diameters (SPD) (CLL [3]; versus ibrutinib): decreases more rapidly
- apoptosis (CLL [4]): increased apoptosis
- CXCL12 levels (CXCL12 [5]): decrease
- CCL2 levels (CCL2 [6]): decrease
- effect on human platelet-mediated thrombus formation [7]: no significant effect
- inhibition of GPVI platelet aggregation (human platelets): does not
- complete responses (CR) (canine B cell lymphoma; Arm 1: 21 dogs, Arm 2: 10 dogs): not observed
- dogs with shrinkage of target lesions >20% (canine B cell lymphoma; Arm 1: 21 dogs, Arm 2: 10 dogs): 8 dogs
- Median time to best response (canine B cell lymphoma; dog, in vivo): 7 days
- best tumor responses, reduction in the sum of target lesions (canine B cell lymphoma; dog, in vivo): 45-49%
- CYP responsible for metabolism (CYP3A4): metabolized by CYP3A4
- unique human metabolite (hepatocytes; hepatocytes): No unique human metabolite
- metabolites in hepatocytes (hepatocytes; mouse, rat, dog, rabbit, monkey, and human hepatocytes): two mono-oxidized metabolites and a glutathione conjugate
- glutathione binding and depletion [8]: binds to glutathione but does not deplete glutathione
- potential for clinical drug-drug interactions via CYP enzymes (CYP enzymes): very unlikely to cause clinical drug-drug interactions
- plasma CXCL12 levels (CXCL12 [9]): significant decrease
- plasma CCL2 levels (CCL2 [10]): significant decrease
- irreversible occupancy of total BTK in MDSCs (BTK [11]): Complete BTK occupancy
- number of tumors (NSCLC (KrasLA2) tumors): fewer overall tumors
- tumor volumes versus vehicle (NSCLC (KrasLA2) tumors): significant decrease
- EC50 (B cell receptor; B-cell): 8.2 nM
- levels in the brain and CSF samples [12]: low but detectable levels
- metabolic processes in plasma, bile, and urine [13]: oxidation, glutathione binding, and hydrolysis
- MTD (CLL [14]): not reached
- respiratory function [15]: no treatment-related adverse effects
- activity in binding assays with 80 known pharmacologic targets [16]: significant activity only against the A3 adenosine receptor
- BTK target occupancy (BTK [17]): improved BTK target occupancy
- neurobehavioral effects or body temperature, functional observation battery [18]: no adverse effects
- inhibition of in vitro EGFR phosphorylation (EGFR): no inhibition
- PD (CLL [19]; 100 mg BID (N = 3)): 0 (0) n (%)
- PR (CLL [19]; 100 mg BID (N = 3)): 3 (100) n (%)
- PR + L (CLL [19]; 100 mg BID (N = 3)): 0 (0) n (%)
- PD (CLL [19]; 100 mg QD (N = 8)): 0 (0) n (%)
- PR (CLL [19]; 100 mg QD (N = 8)): 7 (88) n (%)
- PR + L (CLL [19]; 100 mg QD (N = 8)): 0 (0) n (%)
- PD (CLL [19]; 175 mg QD (N = 8)): 0 (0) n (%)
- PR (CLL [19]; 175 mg QD (N = 8)): 5 (63) n (%)
- PR + L (CLL [19]; 175 mg QD (N = 8)): 3 (37) n (%)
- PD (CLL [19]; 250 mg QD (N = 7)): 0 (0) n (%)
- PR (CLL [19]; 250 mg QD (N = 7)): 5 (71) n (%)
- PR + L (CLL [19]; 250 mg QD (N = 7)): 2 (29) n (%)
- PD (CLL [19]; 400 mg QD (N = 5)): 0 (0) n (%)
- PR (CLL [19]; 400 mg QD (N = 5)): 2 (40) n (%)
- PR + L (CLL [19]; 400 mg QD (N = 5)): 2 (40) n (%)
- PD (CLL [19]; All Cohorts (N = 31)): 0 (0) n (%)
- PR (CLL [19]; All Cohorts (N = 31)): 22 (71) n (%)
- PR + L (CLL [19]; All Cohorts (N = 31)): 7 (23) n (%)
- treatment time at which median % change in SPD achieved the same status (CLL [19]; CLL patients, present study): 7 months
- Headache (treatment-related adverse event) (CLL [19]; Grade 1/2, All (N = 44)): 7 (16) n (%)
- Diarrhea (treatment-related adverse event) (CLL [19]; Grade 1, All (N = 44)): 4 (9) n (%)
- Increased tendency to bruise (treatment-related adverse event) (CLL [19]; Grade 1, All (N = 44)): 6 (14) n (%)
- Petechiae (treatment-related adverse event) (CLL [19]; Grade 1, All (N = 44)): 3 (7) n (%)
- grade of AEs observed (CLL [19]; human, in vivo): only grade 1 AEs
- lymphocytosis (CLL [19]; human, in vivo): A lack of lymphocytosis
- dose-limiting toxicities (DLTs) (CLL [19]; relapsed/refractory CLL): No DLTs
- treatment-related serious adverse events (SAEs) (CLL [19]; relapsed/refractory CLL): No treatment-related serious adverse events
- progression in patients with the 17p deletion (CLL [19]; to date): no 17p patients have progressed
- body temperature, cardiovascular, or ECG (including QT interval) parameters [20]: no meaningful changes

Structure (SMILES): C=CC(=O)N1CCC[C@@H](n2nc(-c3ccc(Oc4ccccc4)cc3)c3c(N)ncnc32)C1 [ibrutinib]
- EC50 (B cell receptor; B-cell): 6.1 nM
- maximum tolerated dose (MTD) [21]: No maximum tolerated dose

Structure (SMILES): C=CC(=O)Nc1cccc(Nc2nc(Nc3ccc(OCCOC)cc3)ncc2F)c1 [CC-292]
- EC50 (B cell receptor): 121 nM

Structure (SMILES): C=CC(=O)Nc1cccc(Nc2nc(Nc3ccc(OCCOC)cc3)ncc2F)c1 [Formula XXVII (CC-292), N-(3-((5-fluoro-2-((4-(2-methoxyethoxy)phenyl)amino)pyrimidin-4-yl)amino)phenyl)acrylamide, reference compound]
- effect on human platelet-mediated thrombus formation [7]: effect similar to Formula (XX-A) (ibrutinib)

Structure (SMILES): C=CC(=O)N1CCC[C@@H](n2nc(-c3ccc(Oc4ccccc4)cc3)c3c(N)ncnc32)C1 [Formula (XX-A), reference compound]
- IC50 ([1]; Platelet): 130 nM

From US11654143B2, “Therapeutic combinations of a BTK inhibitor, a PI3K inhibitor, a JAK-2 inhibitor, and/or a BCL-2 inhibitor” (Acerta Pharma B.V., priority 2014, dated 2023)
